Source: BindingDB's records for patent US20230365627 (Bristol Myers Squibb, 2023)
*1 amine or outer side, *2 acyl side, *3 side chain or, on linkers, in order; H or OH if unused. Where a SMILES comes first, the peptide text is derived from it. Bridges are numbered along the chain shown (N, C = ends). [ ]: non-standard residue; d: D form. X14 = O=C([C@H](CN1Cc2cccc(c2)B2OCC(O)[C@@H](O2)[C@@H](O)[C@H](O)[C@H](O)C1)N[*:1])[*:2]; X13 = O=C([C@H](CCNC[C@@H](O)[C@@H](O)[C@H](O)[C@H](O)C(O)CO)N[*:1])[*:2]; Trp(1-CH2COOH) = N[C@@H](Cc1cn(CC(=O)O)c2ccccc12)C(=O)O; Hyp = O=C(O)[C@@H]1C[C@@H](O)CN1; NMeNle = CCCC[C@H](NC)C(=O)O; NMeA = CN[C@@H](C)C(=O)O

Molecular target: Programmed cell death 1 ligand/protein 1 (Homo sapiens, UniProt Q9NZQ7)
Sequence (Q9NZQ7 whole entry): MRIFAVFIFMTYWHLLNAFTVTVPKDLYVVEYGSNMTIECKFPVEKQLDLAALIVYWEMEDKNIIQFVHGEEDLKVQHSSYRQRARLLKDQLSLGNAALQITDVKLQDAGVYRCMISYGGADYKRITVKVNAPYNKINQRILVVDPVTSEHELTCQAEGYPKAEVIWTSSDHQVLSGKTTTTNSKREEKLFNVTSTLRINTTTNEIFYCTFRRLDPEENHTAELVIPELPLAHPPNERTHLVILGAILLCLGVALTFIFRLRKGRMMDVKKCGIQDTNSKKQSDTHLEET
Sequence (Q15116 whole entry, further chain): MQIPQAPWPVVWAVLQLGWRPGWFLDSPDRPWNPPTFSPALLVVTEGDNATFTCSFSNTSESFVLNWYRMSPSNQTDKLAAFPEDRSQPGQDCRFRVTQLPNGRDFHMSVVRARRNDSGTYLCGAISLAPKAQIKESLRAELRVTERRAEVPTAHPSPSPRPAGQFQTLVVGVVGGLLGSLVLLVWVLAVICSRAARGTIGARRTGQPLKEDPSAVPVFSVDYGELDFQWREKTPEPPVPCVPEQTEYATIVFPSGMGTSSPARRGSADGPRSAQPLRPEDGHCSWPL
Assay: Binding of PD-1 to PD-L1 Using Homogenous Time-Resolved Fluorescence (HTRF) Binding Assay
Protocol: Homogenous Time-Resolved Fluorescence (HTRF) Binding Assay. The interaction of PD-1 and PD-L1 can be assessed using soluble, purified preparations of the extracellular domains of the two proteins. The PD-1 and PD-L1 protein extracellular domains were expressed as fusion proteins with detection tags, for PD-1, the tag was the Fc portion of Immunoglobulin (PD-1-Ig) and for PD-L1 it was the 6 histidine motif (PD-L1-His). All binding studies were performed in an HTRF assay buffer consisting of dPBS supplemented with 0.1% […] bovine serum albumin and 0.05% (v/v) Tween-20. For the h/PD-L1-His binding assay, inhibitors were pre-incubated with PD-L1-His (10 nM final) for 15 m in 4 μl of assay buffer, followed by addition of PD-1-Ig (20 nM final) in 1 μl of assay buffer and further incubation for 15 m. HTRF detection was achieved using europium cryptate-labeled anti-Ig (1 nM final) and allophycocyanin (APC) labeled anti-His (20 nM final). Antibodies were diluted in HTRF detection buffer and 5 μl was dispensed on top of the binding reaction. The reaction mixture was allowed to equilibrate for 30 minutes and the resulting signal (665 nm/620 nm ratio) was obtained using an EnVision fluorometer. Additional binding assays were established between the human proteins PD-1-Ig/PD-L2-His (20 & 5 nM, respectively) and CD80-His/PD-L1-Ig (100 & 10 nM, respectively).

SMILES | IC50
CCCC[C@H]1C(=O)N(C)[C@@H](CCCC)C(=O)N[C@@H](CC(C)C)C(=O)N[C@H](C(=O)NCC(N)=O)CSCC(=O)N[C@@H](Cc2ccc(O)cc2)C(=O)N(C)[C@@H](C)C(=O)N[C@@H](CC(N)=O)C(=O)N2CCC[C@H]2C(=O)N[C@@H](CN2Cc3cccc(c3)B3OCC(O)[C@@H](O3)[C@@H](O)[C@H](O)[C@H](O)C2)C(=O)N[C@@H](CC(C)C)C(=O)N2C[C@H](O)C[C@H]2C(=O)N[C@@H](Cc2c[nH]c3ccccc23)C(=O)N[C@@H](CCNC[C@@H](O)[C@@H](O)[C@H](O)[C@H](O)C(O)CO)C(=O)N[C@@H](Cc2cn(CC(=O)O)c3ccccc23)C(=O)N1C (some centres undefined) [US20230365627, Compound 1040] ({CH2CO}-Y[NMeA]NP[X14]L[Hyp]W[X13][Trp(1-CH2COOH)][NMeNle][NMeNle]LCG-NH2; thioether N-14) | 5.6 nM
CCCC[C@H]1C(=O)N(C)[C@@H](CCCC)C(=O)N[C@@H](CC(C)C)C(=O)N[C@H](C(=O)NCC(N)=O)CSCC(=O)N[C@@H](Cc2ccc(O)cc2)C(=O)N(C)[C@@H](C)C(=O)N[C@@H](CC(N)=O)C(=O)N2CCC[C@H]2C(=O)N[C@H]2CNC[C@@H](O)[C@@H](O)[C@H](O)[C@@H]3OB(OCC3O)c3cccc(c3)CNCC[C@H](NC(=O)[C@H](Cc3c[nH]c4ccccc34)NC(=O)[C@@H]3C[C@@H](O)CN3C(=O)[C@H](CC(C)C)NC2=O)C(=O)N[C@@H](Cc2cn(CC(=O)O)c3ccccc23)C(=O)N1C (some centres undefined) [US20230365627, Compound 1036] | 9.5 nM
CCCC[C@H]1C(=O)N(C)[C@@H](CCCC)C(=O)N[C@@H](CC(C)C)C(=O)N[C@H](C(=O)NCC(N)=O)CSCC(=O)N[C@@H](Cc2ccc(O)cc2)C(=O)N(C)[C@@H](C)C(=O)N[C@@H](CC(N)=O)C(=O)N2CCC[C@H]2C(=O)N[C@H]2CNC[C@@H](O)[C@@H](O)[C@H](O)[C@@H]3OB(OCC3O)c3ccccc3CNCC[C@H](NC(=O)[C@H](Cc3c[nH]c4ccccc34)NC(=O)[C@@H]3C[C@@H](O)CN3C(=O)[C@H](CC(C)C)NC2=O)C(=O)N[C@@H](Cc2cn(CC(=O)O)c3ccccc23)C(=O)N1C (some centres undefined) [US20230365627, Compound 1035] | 4 nM
CCCC[C@H]1C(=O)N(C)[C@@H](CCCC)C(=O)N[C@@H](CC(C)C)C(=O)N[C@H](C(=O)NCC(N)=O)CSCC(=O)N[C@@H](Cc2ccc(O)cc2)C(=O)N(C)[C@@H](C)C(=O)N[C@@H](CC(N)=O)C(=O)N2CCC[C@H]2C(=O)N[C@H]2CNC[C@@H](O)[C@@H](O)[C@H](O)[C@@H]3OB(OCC3O)c3ccc(cc3)CNCC[C@H](NC(=O)[C@H](Cc3c[nH]c4ccccc34)NC(=O)[C@@H]3C[C@@H](O)CN3C(=O)[C@H](CC(C)C)NC2=O)C(=O)N[C@@H](Cc2cn(CC(=O)O)c3ccccc23)C(=O)N1C (some centres undefined) [US20230365627, Compound 1037] | 9.5 nM
